According to patent US5100907A, “Hydantoin esters” (Lonza, Inc., priority 1990, dated 1992):

What was measured:
Emulsion stability tests = assay type: physicochemical
Procedure, shortened: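 Emulsions of test ester (2%), myristyl propionate (7%) and water (91%) were homogenized for one minute. Stability was judged by periodic visual examination in capped jars over a 55 day period, with precursor esters (Ia) tested alongside.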

[1] = Dispersion stability tests; assay type: physicochemical; details: for stability of dispersions in water: 0.5%, and even 5% active levels
Protocol: The dispersion stability tests were performed on the esters (I) to determine the extent each was able to disperse itself in an aqueous medium.
The dispersions were prepared by homogenizing a mixture of the test ester and water, after which repeated examination of the sample was effected for a period of 55 days. This test method is fully indicative of the dispersibility of these esters (I).
The dispersion tests were performed with the esters at 0.5% and 5.0% active levels in water, prepared by combining the test ester with distilled water, and homogenizing the mixture for one to three minutes, via a Kika-Werk Ultra-Turrax S D-45 homogenizer. The dispersions were poured into an eight ounce flint jar, capped, and periodically examined over a 55 day period.

[2] = HLB determination (weighted average method); assay type: physicochemical
Procedure, shortened: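 With test ester fixed at 1 wt.%, the ratio of sorbitan monostearate to POE 20 sorbitan monostearate was varied to emulsify 40:56 (wt.%) paraffin oil:water, mixed at 70°–80 °C and cooled below 30 °C with agitation. Emulsions were graded visually by droplet size; ester HLB was calculated by weighted average from the optimum emulsion.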

Staphylococcus aureus = assay: Antimicrobial study against Staphylococcus aureus (gram-positive bacteria); assay type: cell-based; details: methylolated C8/10 10,800 ppm, methylolated lauric 11,400 ppm, DMDMH 3,000 ppm, others 14,700 ppm

SMILES	ability to stabilize emulsions (Emulsion stability tests)	duration of stabilized emulsions (Emulsion stability tests)	emulsion quality, decreasing order of rank (Emulsion stability tests)	dispersion quality, decreasing order of rank [1]	stability of dispersions in water [1]	Average HLB [2]	HLB Range [2]	Colony Count (Staphylococcus aureus; Day 0)	Colony Count (Staphylococcus aureus; Day 1)	Colony Count (Staphylococcus aureus; Day 2)	Colony Count (Staphylococcus aureus; Day 3)	Colony Count (Staphylococcus aureus; Day 7)
CCCCCCCCCCCC(=O)OCCN1C(=O)N(CO)C(=O)C1(C)C [Methylolated Lauric Ester, 2-(3-hydroxymethyl-5,5-dimethyl-1,3-diazacyclopentane-2,4-dion-1-yl)-ethylester of lauric acid]	the best emulsifiers tested	more than 22 days	cocoate, laurate>oleate,isostearate>stearate>C8/10 ester>acetate	isostearate>oleate>cocoate>laurate>C8/10ester>>stearate>acetate	stable for weeks	12.8	12-14	TNC	4,000 × 1,000	< 0.01 × 1,000	< 0.01 × 1,000	< 0.01 × 1,000
CCCCCCCC/C=C\CCCCCCCC(=O)OCCN1C(=O)N(CO)C(=O)C1(C)C [Methylolated Oleic Ester, 2-(3-hydroxymethyl-5,5-dimethyl-1,3-diazacyclopentane-2,4-dion-1-yl)-ethylester of oleic acid]	–	–	cocoate, laurate>oleate,isostearate>stearate>C8/10 ester>acetate	isostearate>oleate>cocoate>laurate>C8/10ester>>stearate>acetate	stable for weeks	15.0	14-16	TNC	4,200 × 1,000	< 0.01 × 1,000	< 0.01 × 1,000	< 0.01 × 1,000
